Experimental data: patent US12162888B2, “Carboxamides as ubiquitin-specific protease inhibitors” (Valo Early Discovery, Inc., priority 2018, dated 2024)

Biological target: T1, USP28 (His-tagged USP28-FL-mammalian) (Homo sapiens, UniProt Q96RU2)
T1 construct: Expression of USP28 (1-1077)-TEV-6*His (pTT5 vector) was carried out in Expi293f cells; made in house; host or cells: Expi293F cells (pTT5 vector)
T1 sequence (Q96RU2 1-1077): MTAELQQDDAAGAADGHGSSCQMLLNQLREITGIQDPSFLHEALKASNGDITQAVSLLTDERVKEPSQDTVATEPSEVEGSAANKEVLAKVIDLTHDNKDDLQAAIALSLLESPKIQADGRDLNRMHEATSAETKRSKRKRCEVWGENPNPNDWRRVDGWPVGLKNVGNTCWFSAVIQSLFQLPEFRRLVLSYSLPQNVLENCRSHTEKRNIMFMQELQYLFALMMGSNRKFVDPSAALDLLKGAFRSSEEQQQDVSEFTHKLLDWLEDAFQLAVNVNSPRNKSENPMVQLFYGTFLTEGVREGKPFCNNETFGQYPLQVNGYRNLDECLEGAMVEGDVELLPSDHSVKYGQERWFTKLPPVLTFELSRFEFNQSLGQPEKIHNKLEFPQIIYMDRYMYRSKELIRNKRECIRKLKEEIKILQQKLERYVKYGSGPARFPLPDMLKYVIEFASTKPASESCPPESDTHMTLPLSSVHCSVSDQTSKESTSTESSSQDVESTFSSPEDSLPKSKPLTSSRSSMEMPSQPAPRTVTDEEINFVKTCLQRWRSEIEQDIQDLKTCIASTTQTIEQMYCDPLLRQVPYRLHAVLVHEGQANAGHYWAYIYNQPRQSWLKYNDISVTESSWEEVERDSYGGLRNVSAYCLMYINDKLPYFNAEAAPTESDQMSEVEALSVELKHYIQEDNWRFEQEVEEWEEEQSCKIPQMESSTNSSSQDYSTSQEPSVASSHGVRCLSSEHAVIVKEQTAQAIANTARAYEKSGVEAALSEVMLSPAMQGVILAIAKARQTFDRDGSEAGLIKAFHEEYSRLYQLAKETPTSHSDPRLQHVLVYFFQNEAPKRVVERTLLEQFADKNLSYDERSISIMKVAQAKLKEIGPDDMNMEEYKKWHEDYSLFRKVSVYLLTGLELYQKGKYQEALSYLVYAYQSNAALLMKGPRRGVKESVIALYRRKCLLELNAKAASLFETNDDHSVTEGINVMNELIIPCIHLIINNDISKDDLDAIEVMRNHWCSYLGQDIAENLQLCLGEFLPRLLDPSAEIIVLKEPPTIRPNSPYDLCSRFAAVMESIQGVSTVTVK
Experiment: Ubiquitin-Rhodamine 110 Assay for USP28 Activity, Example A-1(a)
Format: biochemical
Conditions: Ubiquitin-Rhodamine 110 assay, read-out: USP28 A-1(a) IC50 range
How it was run: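 Full-length His-tagged human USP28 (1-1077), expressed in Expi293F cells, was used at […] with 25 nM Ub-Rh110 (<<Km) in 20 mM Tris pH 8.0, 3 mM BME, 0.03% BGG and 0.01% Triton X-100. Compounds (25 μM-1.3 nM, 10-point) were preincubated with enzyme for 30 min, and the reaction ran 45 min at room temperature before a citric acid stop. Fluorescence was read at 485/535 nm, and IC50 came from 4-parameter fits of percent inhibition.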

Row | SMILES | IC50
1 | CO[C@]1(C)CN(c2ccc3c(c2)OC[C@H](NC(=O)c2sc4nc(C)ccc4c2N)C3)C[C@H]1N [Example 282, 3-amino-N-[(3R)-7-[(3R,4R)-4-amino-3-methoxy-3-methylpyrrolidin-1-yl]-3,4-dihydro-2H-1-benzopyran-3-yl]-6-methylthieno[2,3-b]pyridine-2-carboxamide] | 200 to 2000 nM
2 | Cc1ccc2c(N)c(C(=O)N[C@H]3COc4cc(N5CC[C@@]6(C5)OCC[C@H]6N)ccc4C3)sc2n1 [Example 409, 3-amino-N-[(3R)-7-[(4R,5S)-4-amino-1-oxa-7-azaspiro[4.4]nonan-7-yl]-3,4-dihydro-2H-1-benzopyran-3-yl]-6-methylthieno[2,3-b]pyridine-2-carboxamide] | 1 to 50 nM

Same assay, conditions: Ubiquitin-Rhodamine 110 biochemical assay, read-out: USP28 A-1(a) IC50 range

Row | SMILES | IC50
3 | CO[C@H](C)CO[C@H]1CN(c2ccc3c(n2)CC[C@H](NC(=O)c2sc4nc(C)ccc4c2N)C3)C[C@@H]1N [Example 482, 3-amino-N-[(6S)-2-[(3S,4S)-3-amino-4-[(2R)-2-methoxypropoxy]pyrrolidin-1-yl]-5,6,7,8-tetrahydroquinolin-6-yl]-6-methylthieno[2,3-b]pyridine-2-carboxamide] | 50 to 200 nM
4 | Cc1ccc2c(N)c(C(=O)N[C@H]3CCc4nc(N5CC[C@]6(CCCN6)C5)ccc4C3)sc2n1 [Example 505, 3-amino-N-[(6S)-2-[(5R)-1,7-diazaspiro[4.4]nonan-7-yl]-5,6,7,8-tetrahydroquinolin-6-yl]-6-methylthieno[2,3-b]pyridine-2-carboxamide] | 50 to 200 nM
5 | Cc1ccc2c(N)c(C(=O)N[C@H]3CCc4nc(N5C[C@H](N)CC(F)(F)C5)ccc4C3)sc2n1 [Example 519, 3-amino-N-[(6S)-2-[(5R)-5-amino-3,3-difluoropiperidin-1-yl]-5,6,7,8-tetrahydroquinolin-6-yl]-6-methylthieno[2,3-b]pyridine-2-carboxamide] | 1 to 50 nM
6 | Cc1cnc2c(N)c(C(=O)N[C@H]3CCc4nc(N5C[C@H](N)C6(C5)OCCO6)ccc4C3)sc2n1 [Example 498, 7-amino-N-[(6S)-2-[(9S)-9-amino-1,4-dioxa-7-azaspiro[4.4]nonan-7-yl]-5,6,7,8-tetrahydroquinolin-6-yl]-3-methylthieno[2,3-b]pyrazine-6-carboxamide] | 200 to 2000 nM
7 | CO[C@@H](C)CO[C@H]1CN(c2ccc3c(n2)CC[C@H](NC(=O)c2sc4nc(C)ccc4c2N)C3)C[C@@H]1N [Example 481, 3-amino-N-[(6S)-2-[(3S,4S)-3-amino-4-[(2S)-2-methoxypropoxy]pyrrolidin-1-yl]-5,6,7,8-tetrahydroquinolin-6-yl]-6-methylthieno[2,3-b]pyridine-2-carboxamide] | 50 to 200 nM
8 | CCO[C@H]1CN(c2ccc3c(n2)CC[C@H](NC(=O)c2sc4nc(C)cnc4c2N)C3)C[C@@H]1N [Example 520, 7-amino-N-[(6S)-2-[(3S,4S)-3-amino-4-ethoxypyrrolidin-1-yl]-5,6,7,8-tetrahydroquinolin-6-yl]-3-methylthieno[2,3-b]pyrazine-6-carboxamide] | 200 to 2000 nM

Same assay, conditions: biochemical IC50 range, Ubiquitin-Rhodamine 110 assay, read-out: USP28 A-1(a)

Row | SMILES | IC50
9 | Cc1ccc2c(N)c(C(=O)N[C@H]3COc4cc(N5C[C@H](N)C6(C5)OCCO6)ccc4C3)sc2n1 [Example 681, 3-amino-N-[(3R)-7-[(9S)-9-amino-1,4-dioxa-7-azaspiro[4.4]nonan-7-yl]-3,4-dihydro-2H-1-benzopyran-3-yl]-6-methylthieno[2,3-b]pyridine-2-carboxamide] | 1 to 50 nM
10 | Cc1ccc2c(N)c(C(=O)NC3COc4cc(N5CC(N)C(COC(F)(F)F)C5)ccc4C3)sc2n1 [Example 672, 3-amino-N-[(3R)-7-[(3R,4R)-3-amino-4-[(trifluoromethoxy)methyl]pyrrolidin-1-yl]-3,4-dihydro-2H-1-benzopyran-3-yl]-6-methylthicno[2,3-b]pyridine-2-carboxamide] | 50 to 200 nM
11 | CNc1ncc(C(=O)N[C@H]2COc3cc(N4CCNCC4)ccc3C2)c2[nH]cc(Cl)c12 [Example 675, 3-chloro-4-(methylamino)-N-[(3R)-7-(piperazin-1-yl)-3,4-dihydro-2H-1-benzopyran-3-yl]-1H-pyrrolo[3,2-c]pyridine-7-carboxamide] | 200 to 2000 nM
12 | Cc1ccc2c(N)c(C(=O)NC3COc4cc(N5CC6CCNCC65)cc(F)c4C3)sc2n1 [Example 664, 3-amino-N-[(3R)-7-[(1S,6R)-3,8-diazabicyclo[4.2.0]octan-8-yl]-5-fluoro-3,4-dihydro-2H-1-benzopyran-3-yl]-6-mcthylthicno[2,3-b]pyridinc-2-carboxamide] | 1 to 50 nM
13 | CCOc1ncc(C(=O)N[C@H]2COc3cc(N4CCNCC4)ccc3C2)c2c1CCCN2 [Example 678, 5-ethoxy-N-[(3R)-7-(piperazin-1-yl)-3,4-dihydro-2H-1-benzopyran-3-yl]-1,2,3,4-tetrahydro-1,6-naphthyridine-8-carboxamide] | 1 to 50 nM
14 | CCOc1ncc(C(=O)N[C@H]2COc3cc(N4CCNCC4)ccc3C2)c2[nH]ccc12 [Example 676, 4-ethoxy-N-[(3R)-7-(piperazin-1-yl)-3,4-dihydro-2H-1-benzopyran-3-yl]-1Hpyrrolo[3,2-c]pyridine-7-carboxamide] | 200 to 2000 nM
15 | Cc1ccc2c(N)c(C(=O)N[C@H]3COc4nc(N5C[C@@H](CF)[C@H](N)C5)ccc4C3)sc2n1 [Example 542, 3-amino-N-[(3R)-7-[(3S,4R)-3-amino-4-(fluoromethyl)pyrrolidin-1-yl]-2H,3H,4H-pyrano[2,3-b]pyridin-3-yl]-6-methylthieno[2,3-b]pyridine-2-carboxamide] | 50 to 200 nM
16 | Cc1ccc2c(N)c(C(=O)N[C@H]3COc4cc(N5CC[C@@]6(CCCN6)C5)cc(F)c4C3)sc2n1 [Example 684, 3-amino-N-[(3R)-7-[(5S)-1,7-diazaspiro[4.4]nonan-7-yl]-5-fluoro-3,4-dihydro-2H-1-benzopyran-3-yl]-6-methylthieno [2,3-b]pyridine-2-carboxamide] | 1 to 50 nM
17 | Cc1ccc2c(N)c(C(=O)N[C@H]3COc4cc(OC[C@H]5CNCC5(F)F)ccc4C3)sc2n1 [Example 686, 3-amino-N-[(3R)-7-{[(3R)-4,4-difluoropyrrolidin-3-yl]methoxy}-3,4-dihydro-2H-1-benzopyran-3-yl]-6-methylthieno[2,3-b]pyridine-2-carboxamide] | 1 to 50 nM
18 | Cc1ccc2c(N)c(C(=O)N[C@H]3COc4cc(N5C[C@H](COC(F)(F)F)[C@H](N)C5)ccc4C3)sc2n1 [Example 673, 3-amino-N-[(3R)-7-[(3S,4S)-3-amino-4-[(trifluoromethoxy)methyl]pyrrolidin-1-yl]-3,4-dihydro-2H-1-benzopyran-3-yl]-6-methylthieno[2,3-b]pyridine-2-carboxamide] | 1 to 50 nM
19 | COC[C@@H]1CN(c2cc(F)c3c(c2)OC[C@H](NC(=O)c2sc4nc(C)ncc4c2N)C3)C[C@@H]1N [Example 694, 5-amino-N-[(3R)-7-[(3R,4R)-3-amino-4-(methoxymethyl)pyrrolidin-1-yl]-5-fluoro-3,4-dihydro-2H-1-benzopyran-3-yl]-2-methylthieno[2,3-d]pyrimidine-6-carboxamide] | 200 to 2000 nM
20 | CO[C@@]12CCN[C@@H]1CN(c1ccc3c(c1)OC[C@H](NC(=O)c1sc4nc(C)ccc4c1N)C3)C2 [Example 667, N-[(3R)-7-[(3aR,6aR)-3a-methoxyoctahydropyrrolo[2,3-c]pyrrol-5-yl]-3,4-dihydro-2H-1-benzopyran-3-yl]-3-amino-6-methylthieno[2,3-b]pyridine-2-carboxamide] | 1 to 50 nM
21 | Cc1ccc2c(N)c(C(=O)NC3COc4cc(N5CC6NCC(F)(F)C6C5)ccc4C3)sc2n1 [Example 654, N-[(3R)-7-[(3aS,6aS)-3,3-difluorooctahydropyrrolo[3,4-b]pyrrol-5-yll-3,4-dihydro-2H-1-benzopyran-3-yl]-3-amino-6-methylthieno[2,3-b]pyridine-2-carboxamide] | 1 to 50 nM
22 | CO[C@@H]1CCCN(c2cc(F)c3c(c2)OC[C@H](NC(=O)c2sc4nc(C)ccc4c2N)C3)C[C@H]1N [Example 689, 3-amino-N-[(3R)-7-[(3R,4R)-3-amino-4-methoxyazepan-1-yl]-5-fluoro-3,4-dihydro-2H-1-benzopyran-3-yl]-6-methylthieno[2,3-b]pyridine-2-carboxamide] | 1 to 50 nM
